The structures appear in SMILES notation. Structures can show the parent of a compound that is named as a salt.

The values below come from patent US20120177697A1, “Excipients In Drug Delivery Vehicles” (Durect Corporation, priority 2003, published 2012).

The conditions of data set [1]: cited from earlier work.
Data set [2] can be described thus: Saturation concentration in de-ionized water. To be noted: DI water. Format: physicochemical. As to the method: Bupivacaine hydrochloride (Sigma-Aldrich Corporation, St. Louis, Mo.) was dissolved in de-ionized (DI) water at a concentration of 40 mg/ml (saturation). A calculated amount of sodium hydroxide (1 N solution) was added to the solution and the pH of the final mixtures was adjusted to 10 to precipitate the BP base. The precipitated product was filtered, and further washed with DI water for at least three times. The precipitated product was dried at approximately 40° C. in vacuum for 24 hours.

As to `CC(=O)OCC(COC(C)=O)OC(C)=O` [triacetin], the “reported solubility in water” value in data set [1] is reported as 7.17 grams in 100 ml of water. As for `CCCCN1CCCCC1C(=O)Nc1c(C)cccc1C` (centres unmarked) [Bupivacaine hydrochloride], the “concentration in de-ionized water at saturation” value in data set [2] was found to be 40000 µg/mL.
